Read-outs that look alike come from different tables or passages of the source.
Experiments:
[1] = target: T1, human TTK (Homo sapiens, UniProt P33981); assay: TTK inhibition assay (indirect ELISA); type: biochemical
T1 construct: Active TTK was purchased from Invitrogen as an amino terminal GST fusion of full length human TTK; purchased Invitrogen
T1 sequence (P33981 1-857): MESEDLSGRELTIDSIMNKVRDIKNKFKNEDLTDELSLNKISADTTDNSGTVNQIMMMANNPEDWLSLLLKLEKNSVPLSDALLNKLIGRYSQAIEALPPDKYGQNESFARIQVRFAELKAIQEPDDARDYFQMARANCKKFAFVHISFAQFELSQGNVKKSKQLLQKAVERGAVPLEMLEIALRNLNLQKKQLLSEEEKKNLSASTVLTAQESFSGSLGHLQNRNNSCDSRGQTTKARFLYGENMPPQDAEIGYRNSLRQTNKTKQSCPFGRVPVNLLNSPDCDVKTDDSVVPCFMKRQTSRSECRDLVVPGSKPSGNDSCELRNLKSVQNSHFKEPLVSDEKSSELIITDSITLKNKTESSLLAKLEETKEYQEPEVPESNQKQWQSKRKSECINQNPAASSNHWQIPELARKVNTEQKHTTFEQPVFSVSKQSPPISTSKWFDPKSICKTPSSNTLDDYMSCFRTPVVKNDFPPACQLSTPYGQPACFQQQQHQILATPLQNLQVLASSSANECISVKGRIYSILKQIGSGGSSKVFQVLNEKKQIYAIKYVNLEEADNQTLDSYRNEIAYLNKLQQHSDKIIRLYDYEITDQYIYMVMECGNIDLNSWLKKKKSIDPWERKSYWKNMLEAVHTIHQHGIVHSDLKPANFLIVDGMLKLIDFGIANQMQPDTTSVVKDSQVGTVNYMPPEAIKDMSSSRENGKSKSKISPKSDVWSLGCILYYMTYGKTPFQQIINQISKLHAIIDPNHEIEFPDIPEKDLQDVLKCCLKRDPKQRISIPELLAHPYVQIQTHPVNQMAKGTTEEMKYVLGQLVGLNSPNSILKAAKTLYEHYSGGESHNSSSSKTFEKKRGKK
Description: Active TTK was purchased from Invitrogen as an amino terminal GST fusion of full length human TTK.
TTK activity was measured using an indirect ELISA detection system.
Compounds were pre-incubated in the presence of enzyme for 5 minutes prior to addition of ATP and the activity remaining quantified using the above described activity assay. The % Inhibition of a compound was determined using the following formula; % Inhibition=100×(1−(experimental value−background value)/(high activity control−background value)). The IC50 value was determined using a non-linear 4 point logistic curve fit (XLfit4, IDBS) with the formula; (A+(B/(1+((x/C)^D)))), where A=background value, B=range, C=inflection point, D=curve fit parameter.

[2] = test system: colon cancer cells (HCT116); assay: Cancer cell line growth inhibition, Sulforhodamine B assay, HCT116; type: cell-based; settings: Homo sapiens, HCT-116, HCT116 colon cancer cell line; read-out: Cancer Cell Line GI50 Range HCT116
Description: (§1) Breast cancer cells (MDA-MB-231 and MDA-MB-468), colon cancer cells (HCT116) and ovarian cancer cells (PA-1 and OVCAR-3) were seeded (1000 to 4000 in 80 μl per well depending on the cell growth rate) into 96 well plates 24 hours before compound overlay. Compounds were prepared as 10 mM stock solutions in 100% DMSO which were diluted with DMEM (Dulbecco's Modified Eagle's Medium) cell growth Medium (Invitrogen, Burlington, ON, Canada) containing 10% FBS (Fetal Bovine Serum) to concentrations ranging from 50 nM to 250 μM. Aliquots (20 μl) from each concentration were overlaid to 80 μl of the pre-seeded cells in the 96 well plates to make final concentrations of 10 nM to 50 μM. The cells were cultured for 5 days before the Sulforhodamine B assay (SRB) was performed to determine the compound's cell growth inhibition activity.
(§2) Sulforhodamine B (purchased from Sigma, Oakville, ON, Canada) is a water-soluble dye that binds to the basic amino acids of the cellular proteins. Thus, colorimetric measurement of the bound dye provides an estimate of the total protein mass that is related to the cell number. the cells are fixed in situ by gently aspirating off the culture media and adding 50 μl ice cold 10% Trichloroacetic Acid (TCA) per well and incubate at 4° C. for 30-60 min, The plates are washed with H2O five times and allowed to air dry for 5 min. Addition of 50 μl 0.4% (w/v) SRB solution in 1% (v/v) acetic acid to each well and incubation for 30 min at RT completes the staining reaction. Following staining, plates are washed four times with 1% acetic acid to remove unbound dye and then allowed to air dry for 5 min. The stain is solubilized with 100 μl of 10 mM Tris pH 10.5 per well. Absorbance is read at 570 nm.
(§3) The percentage (%) of relative growth inhibition was calculated by comparing to DMSO treated only cells (100%). GI50's were determined for compounds with cytotoxic activity. The GI50 was calculated using GraphPad PRISM software (GraphPad Software, Inc., San Diego, Calif., USA).
(§4) In Table 1 below, GI50 value ranges for compound examples against breast cancer cell lines (MDA-MB-468), colon cancer cell lines (HCT116) and ovarian cancer cell lines (PA-1) are given.
In Table 2 below, GI50 value ranges for compound examples against breast cancer cell lines (MDA-MB-231), colon cancer cell lines (HCT116) and ovarian cancer cell lines (PA-1) are given.
(§5) In Table 3 below, GI50 value ranges for compound examples against breast cancer cell lines (MDA-MB-468), colon cancer cell lines (HCT116) and ovarian cancer cell lines (OVCAR-3) are given.

[3] = test system: breast cancer cells (MDA-MB-468); assay: Cancer cell line growth inhibition, Sulforhodamine B assay, MDA-MB-468; type: cell-based; settings: Homo sapiens, read-out: Cancer Cell Line GI50 Range MDA-MB-468
Description: as §1, §2, §3, §4, §5

[4] = test system: ovarian cancer cells (OVCAR-3); assay: Cancer cell line growth inhibition, Sulforhodamine B assay, OVCAR-3; type: cell-based; settings: Homo sapiens, read-out: Cancer Cell Line GI50 Range OVCAR-3
Description: as §1, §2, §3, §5

[5] = 16 μM ATP (Sigma cat# A7699), read-out: TTK IC50 Range (denoted with an asterisk)
[6] = MDA-MB-468, MDA-MB-468 breast cancer cell line
[7] = OVCAR-3, OVCAR-3 ovarian cancer cell line
[8] = 100 μM ATP, read-out: TTK IC50 Range
[9] = MDA-MB-468 breast cancer cell line
[10] = OVCAR-3 ovarian cancer cell line

GI50 [2]	GI50 [3, 6]	GI50 [4, 7]	IC50 [1, 8]	Compound	further results
> 500 nM	> 500 nM	100 to 500 nM		O=C(NC1CC1)c1ccc(-c2cnn3c(NCC4CCOCC4)nc(Nc4ccccc4)nc23)cc1Cl [Example C9]	IC50 [1, 5]: < 100 nM
> 500 nM	100 to 500 nM	> 500 nM		CC(=O)Nc1cccc(Oc2nc(NCC3CCOCC3)n3ncc(-c4ccc(C(=O)NC5CC5)c(C)c4)c3n2)c1 [Example C19]	IC50 [1, 5]: < 100 nM
≤ 100 nM	100 to 500 nM	100 to 500 nM		Cc1cc(-c2cnn3c(NCCN4CCOCC4)nc(Oc4cccc(F)c4)nc23)ccc1C(=O)NC1CC1 [Example C27]	IC50 [1, 5]: < 100 nM
> 500 nM	> 500 nM	> 500 nM	< 100 nM	Cc1cc(-c2cnn3c(NCC4CCOCC4)cc(Oc4ccc[n+]([O-])c4)nc23)ccc1C(=O)NC1CC1 [Example C30, 3-((3-(4-(cyclopropylcarbamoyl)-3-methylphenyl)-7-(((tetrahydro-2H-pyran-4-yl)methyl)amino)pyrazolo[1,5-a]pyrimidin-5-yl)oxy)pyridine-1-oxide]	
≤ 100 nM	≤ 100 nM	≤ 100 nM	< 100 nM	O=C(NC1CC1)c1ccc(-c2cnn3c(NCCN4CCOCC4)cc(Oc4cccc(F)c4F)nc23)cc1Cl [Example C33, 2-chloro-N-cyclopropyl-4-(5-(2,3-difluorophenoxy)-7-((2-morpholinoethyl)amino)pyrazolo[1,5-a]pyrimidin-3-yl)benzamide]	
≤ 100 nM	≤ 100 nM	≤ 100 nM	< 100 nM	O=C(NC1CC1)c1ccc(-c2cnn3c(NCCN4CCOCC4)cc(Oc4cccc(F)c4)nc23)cc1Cl [Example C34]	
			< 100 nM	CC[C@H](Nc1cc(NCCN2CCOCC2)n2ncc(-c3ccc(C(=O)NC4CC4)c(C)c3)c2n1)[C@H](C)O [Example C119]	
			< 100 nM	Cc1cc(-c2cnn3c(NCCN4CCOCC4)cc(O[C@@H]4CCOC4)nc23)ccc1C(=O)NC1CC1 [Example C137]	
			< 100 nM	Cc1cc(-c2cnn3c(NCCN4CCC(F)(F)CC4)cc(NC4CCCC4)nc23)ccc1C(=O)NC1CC1 [Example C184]	
			< 100 nM	Cc1cc(-c2cnn3c(NCCN4CCC(F)(F)CC4)cc(Oc4cnn(C)c4)nc23)ccc1C(=O)NC1CC1 [Example C185]	

Continued, compound first:

Compound	GI50 [2]	GI50 [3, 6]	GI50 [4, 7]	IC50 [1, 8]	further results
COCCNc1nc(OC2CCCC2)nc2c(-c3ccc(C(=O)NC4CC4)cc3)cnn12 [Example C8]	100 to 500 nM	100 to 500 nM	100 to 500 nM		IC50 [1, 5]: < 100 nM
Cc1cc(-c2cnn3c(NCC4CCOCC4)nc(NC4CCCCC4)nc23)ccc1C(=O)NC1CC1 [Example C22]	100 to 500 nM	100 to 500 nM	100 to 500 nM		IC50 [1, 5]: < 100 nM
Cc1cc(-c2cnn3c(NCC4CCOCC4)nc(NC4CCOCC4)nc23)ccc1C(=O)NC1CC1 [Example C23]	100 to 500 nM	> 500 nM	> 500 nM		IC50 [1, 5]: < 100 nM
Cc1cc(-c2cnn3c(NC[C@H]4CCOC4)cc(N[C@H]4CCCC[C@H]4O)nc23)ccc1C(=O)NC1CC1 [Example C35, N-cyclopropyl-4-(5-(((1S,2R)-2-hydroxycyclohexyl)amino)-7-((((R)-tetrahydrofuran-3-yl)methyl)amino)pyrazolo[1,5-a]pyrimidin-3-yl)-2-methylbenzamide]	≤ 100 nM	≤ 100 nM	≤ 100 nM	< 100 nM	
Cc1cc(-c2cnn3c(NC[C@H]4C[C@@](C)(O)C4)cc(Oc4cccnc4)nc23)ccc1C(=O)NC1CC1 [Example C43, N-cyclopropyl-4-(7-((((1s,3s)-3-hydroxy-3-methylcyclobutyl)methyl)amino)-5-(pyridin-3-yloxy)pyrazolo[1,5-a]pyrimidin-3-yl)-2-methylbenzamide]	≤ 100 nM				GI50 [3, 9]: ≤ 100 nM; GI50 [4, 10]: ≤ 100 nM
Cc1cc(-c2cnn3c(NCC4CCOCC4)cc(NC4CCN(C5COC5)CC4)nc23)ccc1C(=O)NC1CC1 [Example C122]				< 100 nM	
COC(C)(C)CNc1cc(N[C@@H](C(C)C)C(C)(C)O)nc2c(-c3ccc(C(=O)NC4CC4)c(C)c3)cnn12 [Example C128]				< 100 nM	
COC(C)(C)CNc1cc(N[C@H]2CCC[C@H]2O)nc2c(-c3ccc(C(=O)NC4CC4)c(C)c3)cnn12 [Example C129]				< 100 nM	
Cc1cc(-c2cnn3c(NC[C@H]4C[C@](C)(O)C4)cc(Oc4cccnc4)nc23)ccc1C(=O)NC1CC1 [Example C135]	≤ 100 nM				GI50 [3, 9]: ≤ 100 nM; GI50 [4, 10]: 100 to 500 nM
Cc1cc(-c2cnn3c(NCCCS(C)(=O)=O)cc(NC4CCOCC4)nc23)ccc1C(=O)NC1CC1 [Example C140]				< 100 nM	
Cc1cc(-c2cnn3c(NCC4CCOCC4)cc(N4CC[C@@H](O)C4)nc23)ccc1C(=O)NC1CC1 [Example C142]				100 to 500 nM	
Cc1cc(-c2cnn3c(NCC(C)C)cc(Oc4ccncc4)nc23)ccc1C(=O)NC1CC1 [Example C149]				100 to 500 nM	
Cc1cc(-c2cnn3c(NCC(C)C)cc(-c4cccc5ncccc45)nc23)ccc1C(=O)NC1CC1 [Example C154]				100 to 500 nM	
CC(C)CNc1cc(-c2cccc3ncccc23)nc2c(-c3ccc(C(=O)NC4CC4)cc3)cnn12 [Example C155]				> 500 nM	
Cc1cc(-c2cnn3c(NCC(C)C)cc(Nc4cccnc4)nc23)ccc1C(=O)NC1CC1 [Example C160]				< 100 nM	
Cc1cc(-c2cnn3c(NCC4CCOCC4)cc(N4CC5(CC(O)C5)C4)nc23)ccc1C(=O)NC1CC1 [Example C162]				< 100 nM	
Cc1cc(-c2cnn3c(NCC4CCOCC4)cc(N4CC[C@H](CO)C4)nc23)ccc1C(=O)NC1CC1 [Example C166]				< 100 nM	
Cc1cc(-c2cnn3c(NCC4CCOCC4)cc(N4CC[C@@H](CO)C4)nc23)ccc1C(=O)NC1CC1 [Example C167]				< 100 nM	
Cc1cc(-c2cnn3c(NCCN4CCC(O)CC4)cc(NC4CCCC4)nc23)ccc1C(=O)NC1CC1 [Example C168]				< 100 nM	

From patent US9573954B2, “Pyrazolopyrimidine compounds” (University Health Network, priority 2012, dated 2017)
